# Results taken from US20150024406A1, “INCREASED AQUAPORIN EXPRESSION ON CELLULAR MEMBRANE TO IMPROVE CRYOPRESERVATION EFFICIENCY” (priority 2013, published 2015).
# Where two headings read alike, the source gives them in different places.
# How the values were obtained:
# rat primary hepatocytes [1] = assay: Cell shrinkage analysis in hypertonic NaCl solution; format: cell-based; conditions: 5M NaCl, 20 minutes; 12 hours treatment; HgCl2 0.1 mM for 5 min; vs control cells; FIG. 1
# Protocol: Cell shrinkage analysis. Cell shrinkage analysis was performed on treated and control samples prepared on tissue culture plates as described above. One culture plate at a time was transferred to an Olympus IX70 microscope (Olympus America Inc, Pa.) mounted with a computer interfaced camera (Hamamatsu Corporation, Bridgewater, N.J.). The media from culture plate was aspirated and 1 mL of 5M NaCl solution was added. Response of the cells to the hypertonic NaCl solution was captured at 40× magnification at one minute intervals for 20 minutes. Images were processed using software MetaMorph Imaging System (Molecular Devices, Sunnyvale, Calif.). Using MetaMorp, the variations of the cross-sectional area of the cells at various sites were measured over time to analyze the shrinkage behavior of the cells in the hypertonic solution.
# AQP8 [2] = assay: Confocal immunofluorescence of AQP8 localization in cultured hepatocytes; format: cell-based, rat; conditions: hepatocytes treated 12 hours; 100 μM Bt2cAMP or 1 μM glucagon; vs control
# Protocol: Confocal immunofluorescence. For confocal immunofluorescence experiments, collagen coated chamber slides were used instead of the tissue culture plates. Hepatocytes (5×10^5) were plated on the collagen-coated chamber slides, and incubated at 37° C. for 4 hours. The cells were then treated with a) Bt2cAMP, b) glucagon and c) normal DMEM media (control) and incubated for 12 hours. After the 12 hours, the cells were fixed with 2% formaldehyde for 10 minutes at room temperature and permeabilized with 0.2% Triton X-100 for 2 minutes. The cells were then treated with a blocking solution containing 3% BSA at room temperature and incubated overnight at 4° C. with goat affinity-purified AQP8 antibody (Santa Cruz Biotechnology Inc., Santa Cruz, Calif.) of dilution 1:50 in PBS. Then, the chamber slides were rinsed with PBS solution and treated with Alexa Flour 488—conjugated donkey anti-goat […] secondary antibody (Invitrogen, Calif.) for 1 hour. The dilution of the secondary antibody used was 1:400 in PBS. Then the cells were treated with 1 μg/mL concentration of Hoechst 33342 (Molecular Probes, Eugene, Oreg.) and mounted with Pro- Long (Molecular Probes, Eugene, Oreg.). Fluorescence localization of the AQP8 was then detected by immersion oil confocal microscopy with 100× magnification lens.
# rat primary hepatocytes [3] = assay: Post-thaw cell viability after cryopreservation (Live-Dead staining); format: cell-based; conditions: for post-thaw cell viability vs control: 20% DMSO or 20% glycerol in DMEM as CPA, one week at −80° C., 24 hours recuperation, FIG. 2 and 3; for cell survival with glycerol as the CPA compared with DMSO: treated cells, glycerol vs DMSO as cryoprotectant
# Protocol: Cryopreservation of Treated and Control Samples. After treatment of cell cultures for 12 hours, samples were removed from the incubator and placed on ice to reduce the cell temperature to 4° C. to minimize the toxicity of the cryoprotecting agent (CPA). Two different CPA solutions, 20% dimethyl sulfoxide in DMEM media and 20% glycerol in DMEM media were used. The CPA solution (1 mL) was added to the samples and incubated at 4° C. for 10 minutes to reach equilibrium. Samples were transferred to the CryoMed Control Rate freezer (Thermo Forma, Waltham, Mass.).
# The controlled cooling process was initiated at 4° C. and a cooling rate of 1° C./min was maintained until −16° C. followed by a cooling rate of 2° C./min until −36° C./min, and thereafter a cooling rate of 10° C./min until a temperature of −80° C. was achieved. The samples were further maintained at −80° C. for 5 minutes to ensure equilibrium. At the end of the freezing process, the samples were transferred immediately to a −80° C. Revco freezer (Kendro Laboratory, Ashville, N.C.) and stored for a week.
# Evaluation of Post-thaw Cell Viability. The cryopreserved samples from the −80° C. freeze were transferred to a sterile glass box and plated in a water bath maintained at 37° C. until the media in the frozen samples completely thawed. At this juncture, the samples were between 5-10° C. Immediately, the CPA containing media in the samples was aspirated to prevent any toxicity to the cells. DMEM (1 mL) was added to the samples and incubated at 37° C. for 10 minutes. After 10 minutes of incubation, the media in the samples was again refreshed in order to remove any remaining traces of CPA. These samples were then placed in the incubator at 37° C., 5% CO2 for 24 hours and allowed to recuperate from the freeze-thaw process.
# After 24 hours of recuperation time, cell viability of the samples was determined by using nuclei fluorescence dyes. The samples were washed with 1× PBS solution and incubated with Hoechst Dye (1 μg/mL) and Ethidium Homodimer (2 μM)(Molecular Probes, Eugene, Oreg.) in PBS for 30 minutes. The viability solution was aspirated, and samples were fixed by adding 10% formalin (1 mL) (VWR, West Chester, Pa.) and incubating for 20 minutes. Subsequently, the cell viability was examined with a confocal microscope with DAPI (excitation 358 nm; emission 461 nm) and Texas red (excitation 596 nm; emission 620 nm) filters. The fluorescent images obtained were then analyzed using MetaMorp Imaging System.
# AQP8 [4] = conditions: cited from earlier work
Compound,cross-sectional area of cells over time (shrinkage) in hypertonic environment (rat primary hepatocytes [1]),AQP8 labeling at the cellular membrane (AQP8 [2]),post-thaw cell viability vs control (rat primary hepatocytes [3]),"post-thaw cell viability of Bt2cAMP-treated vs glucagon-treated samples (rat primary hepatocytes [3]; 12 hrs treatment, most of the culture samples)",cell survival with glycerol as the CPA compared with DMSO (rat primary hepatocytes [3]),post-thaw cell viability by CPA used (rat primary hepatocytes [3]; glycerol as CPA compared to DMSO),increase in the quantity of AQP8 on cellular membrane (AQP8 [4]; treatment of hepatocytes for 16 hours) [%],increase in the quantity of AQP8 on cellular membrane (AQP8 [4]; treatment of hepatocytes for 36 hours) [%]
"CCCC(=O)Nc1ncnc2c1ncn2[C@@H]1O[C@@H]2COP(=O)(O)O[C@H]2[C@H]1OC(=O)CCC [Bt2cAMP, sodium (3aR,4R,6R,6aR)-4-(6-butanamido-9H-purin-9-yl)-6-[(butanoyloxy)methyl]-2-oxo-tetrahydro-2H-1,3,5,2λ^5-furo[3,4-d][1,3,2] dioxaphosphol-2-olate]",significant decrease in their cross-sectional area over time,higher density of AQP8 labeling at the cellular membrane,significantly higher than the control,higher cell viability compared to the ones treated with glucagon,significant increase in the cell survival,,,
[Cl][Hg][Cl] [HgCl2],no significant shrinkage behavior,,significantly lower cell viability,,,,,
OCC(O)CO [glycerol],,,,,,significantly higher post-thaw cell viability compared to DMSO,,
glucagon,significant decrease in their cross-sectional area over time,higher density of AQP8 labeling at the cellular membrane,significantly higher than the control,,significant increase in the cell survival,,80,120
